Test results from patent publication US10953115B2, “Production of sterile active pharmaceutical ingredients” (Icrom S.R.L., priority 2012, dated 2021).

How the values were obtained:
[1] = Appearance and related substances (USP Brinzolamide monograph) after gamma-ray sterilisation; format: physicochemical
Protocol: All the analysis were performed according to USP Brinzolamide monograph, sterility and bioburden test were performed according to Eur. Ph. and USP.
Two related substances (impurities) are described in the USP monograph: Impurity A and Impurity B.
The material was tested according to USP, details about appearance of the powder, related substances and sterility were given in Table 1.
The material was tested according to USP, details about appearance of the powder, related substances and sterility were given in Table 2.
The material was tested according to USP, details about appearance of the powder, related substances and sterility were given in Table 3.
The material was tested according to USP, details about appearance of the powder, related substances and sterility were given in Table 4.
The material was tested according to USP, details about appearance of the powder, related substances and sterility were given in Table 5.

[2] = stated as reason why sterile filtration is not achievable; cited from earlier work
[3] = micronised, LDPE liner in double barrier foil (no vacuum), 25 KGy, RT
[4] = micronised, packed under vacuum, 25 KGy, RT
[5] = micronised, under vacuum and helium, 25 KGy, −78° C.
[6] = micronised, under vacuum and nitrogen, 25 KGy, −78° C.
[7] = not-micronized, LDPE liner in barrier foil, 10 KGy, RT
[8] = not-micronized, LDPE liner in barrier foil, 15 KGy, RT
[9] = not-micronized, LDPE liner in barrier foil, 20 KGy, RT
[10] = not-micronized, LDPE liner in barrier foil, 25 KGy, RT

Compliance with USP specification ([1]; Example 2: micronised, no vacuum, 25 KGy, RT): does not complies with USP specification | Compliance with USP specification ([1]; Example 3: micronised, under vacuum, 25 KGy, RT): complies with USP specification | Compliance with USP specification ([1]; Example 4: micronised, under vacuum and nitrogen, 25 KGy, −78° C.): complies with USP specification | Compliance with USP specification ([1]; Example 5: micronised, under vacuum and helium, 25 KGy, −78° C.): complies with USP specification | Appearance [1, 3]: Almost White powder | Impurity A [1, 3]: Not detected | Impurity B [1, 3]: 0.29% | Impurity C [1, 3]: <0.05% | Impurity D [1, 3]: 0.62% | Total Impurities [1, 3]: 1.4% | Appearance [1, 4]: White powder | Impurity A [1, 4]: Not detected | Impurity B [1, 4]: 0.09% | Impurity C [1, 4]: <0.05% | Impurity D [1, 4]: 0.30% | Total Impurities [1, 4]: 0.6% | Appearance [1, 5]: White powder | Impurity A [1, 5]: Not detected | Impurity B [1, 5]: 0.06% | Impurity C [1, 5]: <0.05% | Impurity D [1, 5]: 0.11% | Total Impurities [1, 5]: 0.2% | Appearance [1, 6]: White powder | Impurity A [1, 6]: Not detected | Impurity B [1, 6]: 0.08% | Impurity C [1, 6]: <0.05% | Impurity D [1, 6]: 0.16% | Total Impurities [1, 6]: 0.3% | Appearance [1, 7]: White powder | Impurity A [1, 7]: Not detected | Impurity B [1, 7]: 0.06% | Impurity C [1, 7]: <0.05% | Impurity D [1, 7]: 0.11% | Total Impurities [1, 7]: 0.2% | Appearance [1, 8]: White powder | Impurity A [1, 8]: Not detected | Impurity B [1, 8]: 0.07% | Impurity C [1, 8]: <0.05% | Impurity D [1, 8]: 0.14% | Total Impurities [1, 8]: 0.2% | Appearance [1, 9]: Greenish powder | Impurity A [1, 9]: Not detected | Impurity B [1, 9]: 0.10% | Impurity C [1, 9]: <0.05% | Impurity D [1, 9]: 0.19% | Total Impurities [1, 9]: 0.3% | Appearance [1, 10]: Greenish powder | Impurity A [1, 10]: Not detected | Impurity B [1, 10]: 0.10% | Impurity C [1, 10]: <0.05% | Impurity D [1, 10]: 0.21% | Total Impurities [1, 10]: 0.4%
Compound: CCN[C@H]1CN(CCCOC)S(=O)(=O)c2sc(S(N)(=O)=O)cc21 [Brinzolamide]
Compliance with USP specifications ([1]; Example 1: not-micronized, 10, 15, 20 and 25 KGy, RT): complies with the USP specifications apart the appearance of the powder in the 20 and 25 KGy trials | Solubility [2]: poor solubility
